The values below come from US5795858A, “Treatment or prevention of Crohn's disease and/or ulcerative colitis” (Peptide Technology Limited, priority 1993, dated 1998).

Entries after “also recorded” stand apart in the source; their conditions may differ.

For the experiment, the system named is TNBS colitis. Kind of experiment: TNBS colitis in rats, 2 week series, once daily s.c. treatment. It is filed as in vivo, Male Sprague-Dawley rats. As to the method:
Treatment was continued on a once daily basis for the following 14 or 28 days. On day 14 (2 week series) or 28 (4 week series), animals were weighed and anaesthetised with pentobarbital. A cardiac puncture was performed to obtain a sample of peripheral blood for the determination of total white blood cell count (WBC) using a coulter counter, and differential count. A midline laparotomy was then performed and the colon exposed and excised. The colon was then opened longitudinally and rinsed clear of […] material. The severity of colonic mucosal injury, diarrhoea, and adhesions was then scored by an observer unaware of the treatment group of the animals using the attached criteria. The length (in cm) and weight of each colonic segment was then determined to allow the determination of the colonic weight/length ratio (as an index of intramural edema and/or fibrosis). Samples of tissue were then taken for biochemical determination of tissue myeloperoxidase (MPO) activity, as an index of granulocyte accumulation using standard biochemical techniques. Samples of tissue were also taken and fixed for subsequent processing for histopathological examination. Differences between the different treatment groups were analysed using either one way analysis of variance (body weight, WBC counts, colonic weight/length ratio, […] activity) or the non-parametric equivalent Kruskall-Wallis test (semiquantitive grading of severity of mucosal injury, adhesions, or diarrhoea). Significance of differences between individual pairs of treatment groups were then assessed using post hoc Tukey's test for parametric data and Dunn's multiple comparison test for non-parametric data. […]

On to `C[C@]12C=CC(=O)C=C1CC[C@@H]1[C@@H]2C(=O)C[C@@]2(C)[C@H]1CC[C@]2(O)C(=O)CO` [prednisone, reference compound], for which the “total WBC counts” value (5 mg/kg once daily s.c. for 2 weeks, vs TNBS colitis animals receiving vehicle, p 0.06-0.07, FIG. 1) is on record as “reductions in total WBC counts”. The “severity of colonic adhesions” value (5 mg/kg once daily s.c., 2 weeks, FIG. 4) is “general trend towards reduction of adhesions”. For the same molecule, under “5 mg/kg once daily s.c., 2 weeks, initial vs final body weight, FIG. 2”, the “TNBS colitis-associated changes in body weight (weight gain)” value is given as “increased weight gains in animals with colitis, with this becoming significant (p<0.05)”. Also, under “5 mg/kg once daily s.c., 2 weeks, pattern compared with adhesions (no significant reduction, trend towards reduction), FIG. 5”, the “colonic weight/length ratio (index of colonic edema)” value is “Virtually identical patterns”. Moreover, the “colonic myeloperoxidase activity (index of granulocyte accumulation)” value (5 mg/kg once daily s.c., 2 weeks, pattern compared with adhesions (no significant reduction, trend towards reduction), FIG. 7) was “Virtually identical patterns”.
As to “D--Ala--Ser--Thr--Thr--Thr--Asn--Tyr--Thr--NH2 [Peptide T]”, for the setting “rat, in vivo”, the “TNBS colitis-associated changes in body weight (weight gain)” value is “increased weight gains in animals with colitis, with this becoming significant (p<0.05); also recorded: approaching significance (p values of 0.06 to 0.08)”; the “colonic myeloperoxidase activity (index of granulocyte accumulation)” value is recorded as “Virtually identical patterns”; the “colonic weight/length ratio (index of colonic edema)” value is given as “Virtually identical patterns”; the “reducing failure to thrive/lack of weight gain” value is reported as “comparable to prednisone”. Under “rat, in vivo”, the “reducing the severity of the leukocytosis” value was “comparable to prednisone”, the “severity of colonic adhesions” value is listed as “general trend towards reduction of adhesions”, the “severity of mucosal injury (semiquantitative grading scale)” value is “may have marginally reduced the severity of mucosal injury” and the “total WBC counts” value was “reductions in total WBC counts”.
